We go through four compounds from US20230257367A1, “NOVEL THYROID HORMONE BETA RECEPTOR AGONIST” (Chengdu Kanghong Pharmaceutical Co., Ltd., priority 2020, published 2023).

The target of data set [1] is T1, TRα-LBD/RXRα (Homo sapiens, UniProt P10827).
T1 construct: TRα-LBD (Invitrogen, PV4762), or TRβ-LBD (Invitrogen, PV4764) with a GST tag were used; purchased Invitrogen (TRα-LBD); Pharmaron (RXRα) PV4762
Put plainly: In vitro binding experiment (TR-FRET SRC2-2 co-activator peptide recruitment), TRα. The format is biochemical. To be noted: 4 h incubation at room temperature.

For data set [2], the target named is T2, TRα (Homo sapiens, UniProt P10827).
T2 construct: host or cells: HEK293T
T2 sequence (P10827 1-410 isoform P10827-2): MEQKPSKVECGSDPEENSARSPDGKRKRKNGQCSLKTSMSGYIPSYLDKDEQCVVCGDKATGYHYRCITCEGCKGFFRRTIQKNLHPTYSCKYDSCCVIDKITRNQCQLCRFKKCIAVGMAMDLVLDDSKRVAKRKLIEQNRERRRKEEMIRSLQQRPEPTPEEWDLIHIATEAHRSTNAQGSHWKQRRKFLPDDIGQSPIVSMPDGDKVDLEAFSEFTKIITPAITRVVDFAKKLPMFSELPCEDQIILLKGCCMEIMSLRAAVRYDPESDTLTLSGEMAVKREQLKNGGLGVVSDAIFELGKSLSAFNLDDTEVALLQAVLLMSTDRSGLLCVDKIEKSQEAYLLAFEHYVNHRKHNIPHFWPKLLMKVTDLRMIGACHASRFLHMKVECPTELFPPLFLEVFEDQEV
T2 sequence (P19793 227-458 partner limits assumed): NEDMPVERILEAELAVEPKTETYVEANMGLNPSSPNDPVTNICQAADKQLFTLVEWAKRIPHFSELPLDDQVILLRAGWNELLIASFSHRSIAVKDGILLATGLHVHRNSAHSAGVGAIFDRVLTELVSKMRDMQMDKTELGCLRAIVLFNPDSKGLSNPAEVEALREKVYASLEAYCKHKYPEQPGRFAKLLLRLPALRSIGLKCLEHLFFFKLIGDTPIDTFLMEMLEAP
In words: In vitro TRα cell transfection experiment (GAL4 luciferase reporter, HEK293T). The format is cell-based.

Data set [3] deals with primary hepatocyte. In words: Hepatotoxicity detection in vitro (CellTiter-Glo). The format is cell-based, human. To be noted: primary hepatocytes; for IC50: Homo sapiens, Hepatocyte, cell viability after 48 hours; for Cell activity at the highest concentration (%): 48 hours, highest working solution concentration 600 μM. The procedure: Information of Primary Hepatocyte
Step 1: a test substance was prepared into a 200 mM DMSO stock solution, and then subjected to 3-times gradient continuous dilution by 7 concentrations, then 1.5 μL of each of the solutions of the 8 concentrations was added into 498.5 μL of incubation culture medium (with a composition referring to Table 5, directly mixed evenly) to prepare a working solution, and the incubation culture medium was preheated at 37° C. before preparation. DMSO was used as a solvent control. DMSO contents in the working solution and the solvent control were both 0.3 vol %. Concentrations of compounds were as follows:
Step 2: Plate Inoculation and Cell Culture
Second Step: Plate Inoculation and Culture of Cells
1) A tube of hepatocytes of the donor used in the experiment preserved at ultra-low temperature was taken, and the hepatocytes were ensured to be still frozen at low temperature before resuscitation. The hepatocytes were quickly placed in a water bath at 37° C. and gently shaken until all ice crystals were dispersed, and were transferred to a biosafety cabinet after spraying 70 vol % ethanol.
2) Contents of hepatocyte tubules were poured into a 50 mL centrifuge tube containing 50 mL of resuscitation culture medium (with a composition referring to Table 3, directly mixed evenly), and centrifuged at 80 g for 8 minutes. After centrifugation, the resuscitation culture medium was sucked out and an inoculation culture medium was added (with a composition referring to Table 4, directly mixed evenly). The cells were counted by AO/PI staining to obtain a cell suspension with a cell density of 0.2×10^6 cells per milliliter.
3) The cell suspension above was inoculated into a 96-well plate coated with collagen I, with 100 μL per well. The culture plate was placed in a 5% CO2 incubator with 95% relative humidity to culture for 4 hours to 6 hours.
4) After incubation for 4 hours to 6 hours, the state of the cells was observed under microscope. The culture plate was shaken gently, the inoculation culture medium was sucked out, and 100 μL of incubation culture medium was added into each well (with a composition referring to Table 5). A toxicity test could be carried out after culturing in the incubator for 18 hours to 20 hours.
5) Before administration, the morphology of the cells was observed under microscope. The culture medium in the culture plate was sucked out, and 100 μL of solvent control (DMSO), or test substance working solution was added into each well. Three parallel samples were tested under each condition.
6) The newly prepared working solution or solvent control was used for solution exchange every 24 hours after dosing.
After the working solution acted for 48 hours, the morphology of the cells was observed under microscope for later use.
Step 3: Cytotoxicity Detection
1) A CellTiter-Glo (Promega, article number G9243) reagent stored at −20° C. was melted in a water bath at 37° C.
2) After the cell culture plate obtained above was incubated for 48 hours, 50 μL of CellTiter-Glo solution was directly added into each experimental well.
3) The cell culture plate was vortexed at 400 rpm for 10 minutes, and incubated at room temperature to stabilize a luminescence signal.
After 10 minutes 100 μL of reaction solution was sucked from each well and transferred to a new white nontransparent-bottom flat plate (Corning 96-well plate Cat No. 3917). The
chemiluminescence value of each well was read by a microplate reader (a luminescence value of the white nontransparent-bottom flat plate was recorded as “a luminescence valueblank”; and a luminescence value of the solvent control was recorded as “a luminescence valuesolvent”).
Cell viability(%)=[(luminescence valueto-be-tested compound−luminescence valueblank)/(luminescence valuesolvent−luminescence valueblank)]×100% […]

Data set [4] deals with T3, TRβ (Homo sapiens, UniProt P10828).
T3 construct: host or cells: HEK293T
T3 sequence (P10828 217-461 limits assumed): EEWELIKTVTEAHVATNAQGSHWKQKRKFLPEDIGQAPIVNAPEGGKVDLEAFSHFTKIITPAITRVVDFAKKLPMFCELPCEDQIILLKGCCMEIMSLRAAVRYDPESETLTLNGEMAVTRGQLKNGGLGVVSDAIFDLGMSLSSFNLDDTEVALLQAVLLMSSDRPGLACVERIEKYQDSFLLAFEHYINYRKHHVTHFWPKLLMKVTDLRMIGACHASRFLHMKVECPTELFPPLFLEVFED
T3 sequence (P19793 227-458 partner limits assumed): T2 sequence (P19793 227-458 partner limits assumed)
Put plainly: In vitro TRβ cell transfection experiment (GAL4 luciferase reporter, HEK293T). The format is cell-based.

Data set [5] concerns the target T4, TRβ-LBD/RXRα (Homo sapiens, UniProt P10828).
T4 construct: TRβ-LBD (Invitrogen, PV4764) with a GST tag were used; purchased Invitrogen (TRβ-LBD); Pharmaron (RXRα) PV4764
Put plainly: In vitro binding experiment (TR-FRET SRC2-2 co-activator peptide recruitment), TRβ. The format is biochemical. Conditions: 4 h incubation at room temperature.

The conditions of data set [6]: reported clinical data (VK2809 phase I; Eprotirome phase III); cited from earlier work.
The conditions of data set [7]: preclinical toxicological studies; cited from earlier work.

T1 sequence (P19793 whole entry partner, other chains not shown, the tested form may be a part): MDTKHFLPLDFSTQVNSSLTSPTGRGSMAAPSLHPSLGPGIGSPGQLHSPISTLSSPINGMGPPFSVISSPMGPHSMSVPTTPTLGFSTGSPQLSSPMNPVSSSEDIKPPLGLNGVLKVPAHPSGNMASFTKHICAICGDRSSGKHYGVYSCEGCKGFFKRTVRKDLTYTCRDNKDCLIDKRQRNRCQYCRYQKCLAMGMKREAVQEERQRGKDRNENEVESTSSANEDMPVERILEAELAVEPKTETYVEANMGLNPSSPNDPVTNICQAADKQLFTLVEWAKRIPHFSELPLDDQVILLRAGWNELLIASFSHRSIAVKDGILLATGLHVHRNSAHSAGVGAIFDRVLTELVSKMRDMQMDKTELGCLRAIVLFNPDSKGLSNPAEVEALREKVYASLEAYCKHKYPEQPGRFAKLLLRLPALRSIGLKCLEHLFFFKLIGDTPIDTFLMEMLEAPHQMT
T4 sequence (P19793 whole entry partner, other chains not shown, the tested form may be a part): as above

For the compound `O=c1cnn(-c2cc(Cl)c(Oc3ncc(O)c(Cc4ccccc4)n3)c(Cl)c2)c(=O)[nH]1` [KH10], the half-maximal effective concentration (EC50) in data set [1] came out at 1.47 µM; in data set [2], 0.269 µM; in data set [4] it was 0.032 µM; in data set [5], 0.054 µM. In data set [3], this compound showed an IC50 of 160000 nM. For the same compound, in data set [3], the “Cell activity at the highest concentration (%)” value turned out to be 0.0142%.
Regarding `Cc1cc(OCP2(=O)OCC[C@@H](c3cccc(Cl)c3)O2)cc(C)c1Cc1ccc(O)c(C(C)C)c1` (stereo partly shown) [VK2809], in data set [6], the liver enzyme result was “Liver enzyme increase”. Also, the cartilage damage result in data set [7] is on record as “cartilage damage was found”.
`CC(C)c1nc(Oc2c(Cl)cc(-n3nc(C#N)c(=O)[nH]c3=O)cc2Cl)ncc1O` [KH03]: the 50% effective concentration (EC50) came out at 0.144 µM in data set [1], 0.826 µM in data set [2], 0.089 µM in data set [4] and 0.031 µM in data set [5]. The midpoint of inhibition in data set [3], the IC50, lay at 264000 nM. Also, the “Cell activity at the highest concentration (%)” value in data set [3] was found to be 0.0421%.
With `CC(C)c1cc(Oc2c(Br)cc(NC(=O)CC(=O)O)cc2Br)ccc1O` [Eprotirome], the liver enzyme entry in data set [6] is “increase in liver enzyme”. The cartilage damage entry in data set [7] is listed as “cartilage injury was also found”.
